Data from patent publication US11306111B2, “Organophosphate derivatives” (January Therapeutics, Inc., priority 2017, dated 2022).
Counter-ions that a name gives are not always drawn.

test system: BxPC-3 cells; assay: Cellular proliferation assay in BxPC-3 cells (Cell-Titer Glo, 120 h); assay type: cell-based; details: Homo sapiens, 120 h incubation, Cell-Titer Glo luminescence
Procedure: Compounds are tested for their ability to impair cancer cell proliferation and/or induce cell death. For cellular proliferation studies, cultured cells are treated with the test compound for 24-120 hours. After compound treatment, cell proliferation is assessed by using methods including, but not limited to, Cell-Titer-Glo® (Promega), Alamar Blue, LIVE/DEAD® (ThermoFisher), BrdU incorporation, and live-cell imaging.
The cancer lines used include, but are not limited to, PANC-1, MiaPaCa-2, BxPC-3 (pancreatic cancer), RT112 (bladder cancer), MCF-7 (breast cancer), and A549 (non-small cell lung cancer). Gemcitabine Hydrochloride serves as a control for activity.
Protocol for the Cellular Proliferation Assay in BxPC-3 Cells
BxPC-3 (pancreatic adenocarcinoma) cell line was purchased from the American Type Culture Collection (Catalog #CRL-1687) and grown in RPMI-1640 medium (e.g. Corning #10-040-CV) with 10% Heat Inactivated Fetal Calf Serum at 37° C. and 5% CO2 (as recommended by the ATCC).
Cultures were grown in […] plates to 80% confluence, and cells were trypsinized to a single-cell suspension. Cells were then resuspended in growth medium to a density of […]. They were then plated into 96-well assay plates (Corning #3917) in a volume of 100 ul/well (2,500 cells/well). Cells were allowed to adhere to plates for 24 h at 37° C. and 5% CO2). Compounds were then added to the wells using an […] serial dilution scheme (over 9 dilutions, generally ranging from 30 μM-30 pM), and the cells were incubated for an additional 120 hours. After 120 h, 90 ul of Cell-Titer Glo reagent (Promega #G7572) was added, and the plates were read using a luminescence counter (e.g., BioTek Synergy HTX at 100 ms read time).

SMILES	EC50 [nM]
CCCCCCCCCCCCCCCCC(=O)O[C@@H]1[C@@H](COP2(=O)OCc3cccc(C)c3O2)O[C@@H](n2ccc(N)nc2=O)C1(F)F (stereo partly drawn) [Compound 31, (2R,3R,5R)-5-(4-amino-2-oxopyrimidin-1(2H)-yl)-4,4-difluoro-2-(((8-methyl-2-oxido-4H-benzo[d][1,3,2]dioxaphosphinin-2-yl)oxy)methyl)tetrahydrofuran-3-yl heptadecanoate]	< 1
CCCCCCCCCCCCCCCCC(=O)O[C@@H]1[C@@H](COP(=O)(OCOC(=O)C(C)(C)C)OCOC(=O)C(C)(C)C)O[C@@H](n2ccc(N)nc2=O)C1(F)F [Compound 35]	< 1
CCCCCCCCCCCCC(=O)O[C@@H]1[C@@H](COP2(=O)OCc3ccccc3O2)O[C@@H](n2ccc(N)nc2=O)C1(F)F (stereo partly drawn) [Compound 28, (2R,3R,5R)-5-(4-amino-2-oxopyrimidin-1(2H)-yl)-4,4-difluoro-2-(((2-oxido-4H-benzo[d][1,3,2]dioxaphosphinin-2-yl)oxy)methyl)tetrahydrofuran-3-yl tridecanoate]	< 1
CCCCCCCCCCCCCCCCC(=O)O[C@@H]1[C@@H](COP(=O)(OCCCCCCCC)OCCCCCCCC)O[C@@H](n2ccc(N)nc2=O)C1(F)F [Compound 20, (2R,3R,5R)-5-(4-amino-2-oxopyrimidin-1(2H)-yl)-2-(((bis(octyloxy)phosphoryl)oxy)methyl)-4,4-difluorotetrahydrofuran-3-yl heptadecanoate]	1000 to 25000
CCCCCCCCCCCCC(=O)O[C@@H]1[C@@H](COP(=O)(OCOC(=O)C(C)(C)C)OCOC(=O)C(C)(C)C)O[C@@H](n2ccc(N)nc2=O)C1(F)F [Compound 33]	< 1
CCCCCCCCCCCCCCC(=O)O[C@@H]1[C@@H](COP2(=O)OCc3ccccc3O2)O[C@@H](n2ccc(N)nc2=O)C1(F)F (stereo partly drawn) [Compound 29, (2R,3R,5R)-5-(4-amino-2-oxopyrimidin-1(2H)-yl)-4,4-difluoro-2-(((2-oxido-4H-benzo[d][1,3,2]dioxaphosphinin-2-yl)oxy)methyl)tetrahydrofuran-3-yl pentadecanoate]	< 1
CCCCCCCCCCCCCCC(=O)O[C@@H]1[C@@H](COP(=O)(OCOC(=O)C(C)(C)C)OCOC(=O)C(C)(C)C)O[C@@H](n2ccc(N)nc2=O)C1(F)F [Compound 34]	< 1
CC(C)OP(=O)(OC[C@H]1O[C@@H](n2ccc(N)nc2=O)C(F)(F)[C@@H]1OC(=O)C(C)C)OC(C)C [Compound 16, (2R,3R,5R)-5-(4-amino-2-oxopyrimidin-1(2H)-(((diisopropoxyphosphoryl)oxy)methyl)-4,4-difluorotetrahydrofuran-3-yl isobutyrate]	< 1000
CCCCCCCCCCCCCCCCOP1(=O)OC[C@H]2O[C@@H](n3ccc(N)nc3=O)C(F)(F)[C@@H]2O1 (single isomer, unassigned) [Compound 43A]	1 to 100
CCCCCCCCC(=O)O[C@@H]1[C@@H](COP2(=O)OCc3ccccc3O2)O[C@@H](n2ccc(N)nc2=O)C1(F)F (stereo partly drawn) [Compound 2, (2R,3R,5R)-5-(4-amino-2-oxopyrimidin-1(2H)-yl)-4,4-difluoro-2-(((2-oxido-4H-benzo[d][1,3,2]dioxaphosphinin-2-yl)oxy)methyl)tetrahydrofuran-3-yl nonanoate]	< 1
CCCCCCCCCCCCCCCCCCCCOP1(=O)OC[C@H]2O[C@@H](n3ccc(N)nc3=O)C(F)(F)[C@@H]2O1 (single isomer, unassigned) [Compound 45A]	< 1000
CCCCCCCCCCCCCCCCCCOP1(=O)OC[C@H]2O[C@@H](n3ccc(N)nc3=O)C(F)(F)[C@@H]2O1 (single isomer, unassigned) [Compound 44A]	1 to 100
CCCCCCCCCCCCCCCCC(=O)O[C@@H]1[C@@H](COP2(=O)OCc3ccccc3O2)O[C@@H](n2ccc(N)nc2=O)C1(F)F (stereo partly drawn) [Compound 30, (2R,3R,5R)-5-(4-amino-2-oxopyrimidin-1(2H)-yl)-4,4-difluoro-2-(((2-oxido-4H-benzo[d][1,3,2]dioxaphosphinin-2-yl)oxy)methyl)tetrahydrofuran-3-yl heptadecanoate]	< 1
Nc1ccn([C@@H]2O[C@H](CO)[C@@H](O)C2(F)F)c(=O)n1 [Gemcitabine Hydrochloride, 2′,2′-difluoro-2′-deoxycytidine, reference compound]	1 to 100
Nc1ccn([C@@H]2O[C@H](COP(=O)(Oc3ccccc3)Oc3ccccc3)[C@@H](OC(=O)c3ccccc3)C2(F)F)c(=O)n1 [Compound 25, (2R,3R,5R)-5-(4-amino-2-oxopyrimidin-1(2H)-yl)-2-(((diphenoxyphosphoryl)oxy)methyl)-4,4-difluorotetrahydrofuran-3-yl benzoate]	1000 to 25000
Nc1ccn([C@@H]2O[C@H](COP(=O)(OC3CCCCC3)OC3CCCCC3)[C@@H](OC(=O)C3CCCCC3)C2(F)F)c(=O)n1 [Compound 24, (2R,3R,5R)-5-(4-amino-2-oxopyrimidin-1(2H)-(((bis(cyclohexyloxy)phosphoryl)oxy)methyl)-4,4-difluorotetrahydrofuran-3-yl cyclohexanecarboxylate]	1000 to 25000
CCCCCCCCCCCCCCCCC(=O)O[C@@H]1[C@@H](COP2(=O)OCc3c(C)cccc3O2)O[C@@H](n2ccc(N)nc2=O)C1(F)F (stereo partly drawn) [Compound 32, (2R,3R,5R)-5-(4-amino-2-oxopyrimidin-1(2H)-yl)-4,4-difluoro-2-(((5-methyl-2-oxido-4H-benzo[d][1,3,2]dioxaphosphinin-2-yl)oxy)methyl)tetrahydrofuran-3-yl heptadecanoate]	< 1
CCCCCOP(=O)(OCCCCC)OC[C@H]1O[C@@H](n2ccc(N)nc2=O)C(F)(F)[C@@H]1OC(=O)CCCCC [Compound 18, (2R,3R,5R)-5-(4-amino-2-oxopyrimidin-1(2H)-yl)-2-(((bis(pentyloxy)phosphoryl)oxy)methyl)-4,4-difluorotetrahydrofuran-3-yl hexanoate]	< 1000
CCCCCCCCCCCCCCCCCCC(=O)O[C@@H]1[C@@H](COP(=O)(OCOC(=O)C(C)(C)C)OCOC(=O)C(C)(C)C)O[C@@H](n2ccc(N)nc2=O)C1(F)F [Compound 36]	< 1
CCCCCCCCCCCCCCCCCCCCCCOP1(=O)OC[C@H]2O[C@@H](n3ccc(N)nc3=O)C(F)(F)[C@@H]2O1 (single isomer, unassigned) [Compound 46A]	1000 to 25000
CCCCCCCCCCCCCCOP(=O)(OCCCCCCCCCCCCCC)OC[C@H]1O[C@@H](n2ccc(N)nc2=O)C(F)(F)[C@@H]1OC(=O)CCCCCCCCCCCCCC [Compound 23, (2R,3R,5R)-5-(4-amino-2-oxopyrimidin-1(2H)-yl)-2-(((bis(tetradecyloxy)phosphoryl)oxy)methyl)-4,4-difluorotetrahydrofuran-3-yl pentadecanoate]	1000 to 25000
CCCCCCCCCCOP1(=O)OC[C@H]2O[C@@H](n3ccc(N)nc3=O)C(F)(F)[C@@H]2O1 (single isomer, unassigned) [Compound 42A]	< 1
CCCOP(=O)(OCCC)OC[C@H]1O[C@@H](n2ccc(N)nc2=O)C(F)(F)[C@@H]1OC(=O)CCC [Compound 17, (2R,3R,5R)-5-(4-amino-2-oxopyrimidin-1(2H)-(((dipropoxyphosphoryl)oxy)methyl)-4,4-difluorotetrahydrofuran-3-yl butyrate]	1000 to 25000
CCCCCCCCCCOP(=O)(OCCCCCCCCCC)OC[C@H]1O[C@@H](n2ccc(N)nc2=O)C(F)(F)[C@@H]1OC(=O)CCCCCCCCCC [Compound 21, (2R,3R,5R)-5-(4-amino-2-oxopyrimidin-1(2H)-yl)-2-(((bis(decyloxy)phosphoryl)oxy)methyl)-4,4-difluorotetrahydrofuran-3-yl undecanoate]	1000 to 25000
CCCCCCCOP(=O)(OCCCCCCC)OC[C@H]1O[C@@H](n2ccc(N)nc2=O)C(F)(F)[C@@H]1OC(=O)CCCCCCC [Compound 19, (2R,3R,5R)-5-(4-amino-2-oxopyrimidin-1(2H)-yl)-2-(((bis(heptyloxy)phosphoryl)oxy)methyl)-4,4-difluorotetrahydrofuran-3-yl octanoate]	< 1000
CCCCCCCCCCCCOP(=O)(OCCCCCCCCCCCC)OC[C@H]1O[C@@H](n2ccc(N)nc2=O)C(F)(F)[C@@H]1OC(=O)CCCCCCCCCCCC [Compound 22, (2R,3R,5R)-5-(4-amino-2-oxopyrimidin-1(2H)-yl)-2-(((bis(dodecyloxy)phosphoryl)oxy)methyl)-4,4-difluorotetrahydrofuran-3-yl tridecanoate]	1000 to 25000
CCCCCCCCC(=O)O[C@@H]1[C@@H](COP(=O)(OCCCCCC)OCCCCCC)O[C@@H](n2ccc(N)nc2=O)C1(F)F [Compound 1, (2R,3R,5R)-5-(4-amino-2-oxopyrimidin-1(2H)-yl)-2-(((bis(hexyloxy)phosphoryl)oxy)methyl)-4,4-difluorotetrahydrofuran-3-yl nonanoate]	1 to 100
CCCCCCCCC(=O)O[C@@H]1[C@@H](COP(=O)(OCOC(=O)C(C)(C)C)OCOC(=O)C(C)(C)C)O[C@@H](n2ccc(N)nc2=O)C1(F)F [Compound 3]	< 1
